Here are results for six molecules from patent publication EP4755878A1, “PHOTOCHROMIC COMPOUND, PHENOL DERIVATIVE, CURABLE COMPOSITION, OPTICAL ARTICLE, LENS, AND EYEGLASS” (TOKUYAMA CORPORATION, priority 2023, dated 2025).

Series [1] is described as follows: Photochromic properties of photochromic laminate (plastic lens) made by coating method. Format: physicochemical. To be noted: for Color developing density at 23°C: absorbance difference after 240 seconds irradiation at 23°C; for Color developing density at 35°C: absorbance difference after 240 seconds irradiation at 35°C; for Maximum absorption wavelength: after color development, second absorption wavelength (lower line of pair). An excerpt: First, the photochromic compound obtained in Example 1 above, a photoinitiator, and polymerizable compounds were mixed to obtain a curable composition.
As the polymerizable compounds, a blend of the following radically-polymerizable monomers in combination was used.
• Polyethylene glycol dimethacrylate (average molecular weight: 736): 42 parts by mass • Polyethylene glycol dimethacrylate (average molecular weight: 536): 12 parts by mass • Trimethylolpropane trimethacrylate: 38 parts by mass • γ-Methacryloyloxypropyltrimethoxysilane: 2 parts by mass • Glycidyl methacrylate: 1 part by mass.
Note that in the curable composition, the photochromic compound obtained in Example 1 above was added to be 0.25 mmol taking the total amount of the radically-polymerizable monomers as 100 g. The following were used as additives.
(stabilizer, Irganox 245): 1 part by mass Bis(1,2,2,6,6-pentamethyl-4-piperidyl) sebacate: 3 parts by mass Leveling agent from DuPont Toray Specialty Materials K.K. (L7001): 0.1 parts by mass.
Note that the above-mentioned additives are described with blending ratios taking a total of the radically-polymerizable monomers as 100 parts by mass.
Using this curable composition, a photochromic laminate was obtained by a lamination process described below with the polymerization described below being carried out.
First, a thiourethane plastic lens with a center thickness of 2 mm and a refractive index of 1.60 was prepared as an optical substrate. Note that the thiourethane plastic lens had been alkaline-etched beforehand in a 10% aqueous sodium hydroxide solution at 50°C for 5 minutes, and then thoroughly washed with distilled water.
A spin coater (1H-DX2, manufactured by MIKASA CO., LTD) was used to coat a surface of the above-mentioned plastic lens with a moisture-curable primer (product name: TR-SC-P, manufactured by Tokuyama Corporation) at a rotation speed of 70 rpm for 15 seconds, followed by at 1000 rpm for 10 seconds. Then, about 2 g of the photochromic curable composition obtained as above was spin-coated at a rotation speed of 60 rpm for 40 seconds, followed by at 600 rpm for 10 to 20 seconds so as to achieve a photochromic coating layer with a film thickness of 40 µm.
The lens having the surface coated with the photochromic curable composition (photochromic coating layer) was irradiated with light for 90 seconds in a nitrogen gas atmosphere using a metal halide lamp with an output of 200 mW/cm^2 to cure the coating film. The coating was then further heated at 110°C for 1 hour to produce a photochromic laminate with a photochromic layer.
Photochromic laminates were produced using the photochromic compounds obtained in Examples 2 to 19 in the same manner as in Example 20.
Photochromic laminates were obtained in the same manner as in Example 20 using photochromic compounds represented by the following formulas (A) to (F). [drawing 143] [drawing 144] [drawing 145] [drawing 146] [drawing 147] [drawing 148] [drawing 149] [drawing 150]
The resulting photochromic laminates were evaluated by the methods described below.
Table 3 summarizes the results of Examples 20, 32, and 34, and Comparative Examples 1 to 6, and Table 4 summarizes the results of Examples 21 to 31, 33, and 35 to 38. The relationship between the fading half-life at 23°C and the color development ratio at the higher temperature of the photochromic laminates according to Examples and Comparative Examples are shown in a graph in FIG. 1.
Photochromic laminates were formed using the photochromic compound obtained in Examples 61 to 71 in the same manner as in Example 20.

Series [2] in a line: Photochromic properties of photochromic cured product made by kneading method. It counts as physicochemical. As to conditions: for Maximum absorption wavelength: 1 mm, after color development, second absorption wavelength (lower line of pair); for Color developing density at 23°C: absorbance difference after 240 seconds irradiation at 23°C; for Color developing density at 35°C: absorbance difference after 240 seconds irradiation at 35°C. An excerpt:
First, the photochromic compound obtained in Example 1, additives, and polymerizable compounds were mixed to obtain a curable composition. As the polymerizable compounds, a blend of the following polymerizable monomers in combination was used. • 1,3-Bis(isocyanatomethyl)cyclohexane: 36.7 parts by mass Pentaerythritol tetrakis(3-mercaptopropionate): 39.4 parts by mass • Polyoxyethylene polyoxypropylene lauryl ether (WONDERSURF 140 from Aoki Oil Industrial Co., Ltd.): 17.4 parts by mass 1-Decanethiol: 2.8 parts by mass • RX-1 prepared according to the method described in Patent Document 12: 3.8 parts by mass Note that in the curable composition, the photochromic compound was added to be 0.106 mmol taking the total amount of the polymerizable monomers as 100 g.
The following additives were used. Dimethyltin dichloride: 0.05 parts by mass • Irganox 245 from BASF Japan Ltd.: 0.1 parts by mass • 2-Ethylhexyl 4-methoxycinnamate: 0.6 parts by mass
The prepared curable composition was sufficiently degassed, and then injected into a glass mold provided with a gap of 1 mm, and the curable composition was polymerized via casting polymerization. […] After the polymerization, the cured product was removed from the glass mold, to obtain photochromic cured product having a thickness of 1 mm. The resulting photochromic cured product was evaluated in the same manner as in Example 23.
(Examples 51 to 60, and Comparative Examples 11 to 14) Photochromic cured products were formed using the photochromic compound shown in Table 6 in the same manner as in Example 50.

Series [3] can be described thus: Photochromic properties of photochromic layer (binder sheet) made by binder method. As to conditions: for Color developing density at 23°C: absorbance difference after 240 seconds irradiation at 23°C; for Color developing density at 35°C: absorbance difference after 240 seconds irradiation at 35°C; for Maximum absorption wavelength: after color development, second absorption wavelength (lower line of pair).
Method: This is the maximum absorption wavelength after color development determined by a spectrophotometer manufactured by Otsuka Electronics Co., Ltd. (instantaneous multichannel photo detector MCPD3000) and was used as an index of a color tone upon color development.
This is a difference between an absorbance {ε(240)} after irradiation with light at the above-mentioned maximum absorption wavelength at 23°C for 240 seconds and an absorbance ε(0) when not irradiated with light, and was used as an index of a color developing density. The higher this value is, the better photochromic property is.
This is a difference between an absorbance {ε(240)} after irradiation with light at first and second absorption wavelengths at 35°C for 240 seconds and an absorbance ε(0) when not irradiated with light, and was used as an index of a color developing density. The higher this value is, the better photochromic property is.
Color developing density at 35°C (A35) /color developing density at 23°C (A23) × 100(%). The higher this value is, the smaller the difference in color developing density between the higher temperature and the lower temperature is, and the smaller the temperature dependence is.
This is the period of time required for the absorbance at a maximum absorption wavelength of a sample to decrease to 1/2 of {ε(240)-ε(0)}, when light irradiation is stopped after the sample had been irradiated with light at 23°C for 240 seconds, and was used as an index of a color fading rate. The shorter this period of time is, the higher the color fading rate is.
A binder sheet was made according to the following method. […] As the first and second optical sheets, polycarbonate sheets with a thickness of 400 µm were used.
Note that the photochromic compound was added to be 0.25 mmol relative to 100 parts by mass of the terminally non-reactive urethaneurea resin.

Structures are written as SMILES.

In the case of `CCCOc1ccc(C2(c3ccc(OC)cc3)C=Cc3c4c(c5cc6c(cc5c3O2)OC(C)(C)S6)-c2ccc(N3CCCc5ccccc53)cc2C4(CCCOC)CCCOC)cc1` (stereo not drawn) [Formula (7-4)], the “Color developing density at 23°C” value in series [1] (first absorption wavelength) was 1.30 -; in series [1] (second absorption wavelength) it was 0.71 -; in series [2] (first absorption wavelength) it was 1.35 -; in series [2] (second absorption wavelength) it was 0.72 -; in series [3] (first absorption wavelength), 1.33 -; in series [3] (second absorption wavelength), 0.72 -. In addition, the “Color developing density at 35°C” value is 0.90 - in series [1] (first absorption wavelength); 0.49 - in series [1] (second absorption wavelength); 0.95 - in series [2] (first absorption wavelength); 0.50 - in series [2] (second absorption wavelength); 0.89 - in series [3] (first absorption wavelength); 0.49 - in series [3] (second absorption wavelength). For the same molecule, the Maximum absorption wavelength in series [1] is reported as 622 nm; in series [2] it was 625 nm; in series [3], 622 nm.
As for `COc1ccc(C2(c3ccc(OC)cc3)C=Cc3c4c(c5ccc(Oc6ccccc6)cc5c3O2)-c2ccc(N(c3ccccc3)c3ccccc3)cc2C4(CCCCF)CCCCF)cc1` [Formula (8-2)], the “Color developing density at 23°C” value in series [1] (first absorption wavelength) was 0.75 -; in series [1] (second absorption wavelength), 0.99 -; in series [2] (first absorption wavelength), 0.78 -; in series [2] (second absorption wavelength), 1.02 -; in series [3] (first absorption wavelength), 0.77 -; in series [3] (second absorption wavelength), 1.01 -. Moreover, the “Color developing density at 35°C” value is listed as 0.52 - in series [1] (first absorption wavelength); 0.69 - in series [1] (second absorption wavelength); 0.55 - in series [2] (first absorption wavelength); 0.70 - in series [2] (second absorption wavelength); 0.51 - in series [3] (first absorption wavelength); 0.69 - in series [3] (second absorption wavelength). The Maximum absorption wavelength is 610 nm in series [1], 618 nm in series [2] and 609 nm in series [3].
For `CCCOc1ccc(C2(c3ccc(OC)cc3)C=Cc3c4c(c5cc(C)c(OC)cc5c3O2)-c2ccc(N3CCSc5ccccc53)cc2C4(CCC)CCC)cc1` (stereo not drawn) [Formula (9-2)], the “Color developing density at 23°C” value is 1.01 - in series [1] (first absorption wavelength); 0.90 - in series [1] (second absorption wavelength); 1.05 - in series [2] (first absorption wavelength); 0.92 - in series [2] (second absorption wavelength); 1.04 - in series [3] (first absorption wavelength); 0.91 - in series [3] (second absorption wavelength). Moreover, the “Color developing density at 35°C” value in series [1] (first absorption wavelength) was 0.74 -; in series [1] (second absorption wavelength), 0.66 -; in series [2] (first absorption wavelength), 0.78 -; in series [2] (second absorption wavelength), 0.69 -; in series [3] (first absorption wavelength), 0.73 -; in series [3] (second absorption wavelength), 0.64 -. Besides, the Maximum absorption wavelength in series [1] is listed as 609 nm; in series [2], 614 nm; in series [3], 607 nm.
With `CCCCC1(CCCC)c2cc(N(CC)c3ccccc3)ccc2-c2c1c1c(c3cc(C)c(-c4ccc(OC)cc4)cc23)OC(c2ccc(C)cc2)(c2ccc(N(C)c3ccccc3)cc2)C=C1` (stereo not drawn) [Formula (12-5)], the “Color developing density at 23°C” value in series [1] (first absorption wavelength) was 0.86 -; in series [1] (second absorption wavelength), 1.49 -; in series [2] (first absorption wavelength), 0.88 -; in series [2] (second absorption wavelength), 1.52 -; in series [3] (first absorption wavelength), 0.87 -; in series [3] (second absorption wavelength) it was 1.51 -. Besides, the “Color developing density at 35°C” value was 0.64 - in series [1] (first absorption wavelength); 1.11 - in series [1] (second absorption wavelength); 0.67 - in series [2] (first absorption wavelength); 1.15 - in series [2] (second absorption wavelength); 0.61 - in series [3] (first absorption wavelength); 1.08 - in series [3] (second absorption wavelength). The Maximum absorption wavelength is 624 nm in series [1], 632 nm in series [2] and 625 nm in series [3].
Turning to `COc1ccc(C2(c3ccc(OC)cc3)C=Cc3c4c(c5ccc(OC)cc5c3O2)-c2ccc(N3CCOc5ccccc53)cc2C4(C)C)cc1` [Formula (13-2)], the “Color developing density at 23°C” value in series [1] (first absorption wavelength) is 0.87 -; in series [1] (second absorption wavelength) it was 1.02 -; in series [2] (first absorption wavelength), 0.90 -; in series [2] (second absorption wavelength), 1.04 -; in series [3] (first absorption wavelength), 0.90 -; in series [3] (second absorption wavelength) it was 1.04 -. Also, the “Color developing density at 35°C” value in series [1] (first absorption wavelength) is given as 0.63 -; in series [1] (second absorption wavelength) it was 0.75 -; in series [2] (first absorption wavelength), 0.66 -; in series [2] (second absorption wavelength), 0.78 -; in series [3] (first absorption wavelength) it was 0.63 -; in series [3] (second absorption wavelength) it was 0.74 -. In addition, the Maximum absorption wavelength in series [1] was determined as 608 nm; in series [2], 616 nm; in series [3], 608 nm.
As to `COc1ccc(C2(c3ccc(OC)cc3)C=Cc3c4c(c5ccc(OC)cc5c3O2)-c2ccc(N(c3ccccc3)c3ccccc3)cc2C4(C)C)cc1` [Formula (15-2)], the “Color developing density at 23°C” value in series [1] (first absorption wavelength) is 0.92 -; in series [1] (second absorption wavelength), 1.07 -; in series [2] (first absorption wavelength), 0.95 -; in series [2] (second absorption wavelength) it was 1.10 -; in series [3] (first absorption wavelength), 0.93 -; in series [3] (second absorption wavelength) it was 1.08 -. Also, the “Color developing density at 35°C” value is 0.67 - in series [1] (first absorption wavelength); 0.79 - in series [1] (second absorption wavelength); 0.70 - in series [2] (first absorption wavelength); 0.83 - in series [2] (second absorption wavelength); 0.67 - in series [3] (first absorption wavelength); 078 - in series [3] (second absorption wavelength). In addition, the Maximum absorption wavelength in series [1] worked out at 619 nm; in series [2], 622 nm; in series [3] it was 616 nm.
